Where two headings read alike, the source gives them in different places.

One experiment deals with AChE. It is filed as in vivo, rat. The settings on record: scopolamine model; for % AChE Inhibition: plasma. The protocol:
Samples were then centrifuged at 10,000 rpm for 5 min, and plasma was stored at − 70 °C until analysis.
Thiocholine, which was produced due to the hydrolysis of acetylthiocholine (ACTI) by AChE, was estimated by making it react with 5, 5′-dithiobis-(2-nitrobenzoic acid) (DTNB). The chemical, 5-thio-2-nitrobenzoic acid (yellow color complex), which was released due to reaction was estimated using a UV spectrophotometer in the range of 400 to 420 nm with maximal absorption at 412 nm. One hundred microliter of blank rat plasma was taken in the polypropylene vials. To this, 2.8 mL of phosphate buffer (0.01 M, pH 8) and 100 µL of DTNB reagents were added and mixed well. Then, 20 µL of ACTI (26.01 mg/mL of Milli-Q water) was added to the contents of the cuvette to initiate the enzyme reaction. The reaction kinetics was monitored at different time intervals (0, 1, 2, 3, 4 min), and absorbance was noted. 2.8 mL buffer (0.01 M, pH 8.0) and 100 µL DTNB reagent served as blank. Concentrations in the range of 0.03–30 mM were prepared using methanol as a diluent. […] Substrate concentration and reaction time were optimized such that sufficient concentration of ACTI is available to bind with the enzyme to initiate the reaction and also it should not saturate the enzyme. In this study, varying concentrations (100–1000 µM) of ACTI were prepared, and reaction kinetics were observed. In general, the maximum time should be either 2–4 min or even less, because the enzyme might undergo degradation. In the present study, up to 4 min of reaction kinetics (changing the optical density or absorbance) was measured. One unit of AChE activity is defined as the number of µmol of acetylthiocholine iodide hydrolyzed per minute. The specific activity of AChE is expressed in moles/min/mg of protein (Kaur et al. [2015]): AChEActivity=(abs.permin×1000×volumeofenzyme)/(13600×TRM)AChEActivity=abovevalue×1000(nanomolar/min/mL)
where 13,600 = molar extinction coefficient of DTNB: 1000-molar conversion factor: (TRM) total reaction mixture 3 mL: volume of enzyme (0.1 mL).

Experiment [1] has as its system scopolamine-induced amnesia rats. Nature of the experiment: Passive avoidance test, scopolamine-induced amnesia (acute model). In kind it is in vivo, Wistar rats. The settings on record: Mean ± SEM; for Latency time: time to enter darker compartment. The method, then: (§1) In the acute model, the rats were trained for Morris water maze (MWM) and passive avoidance test (PAT) tasks in the first 4 days. On the 5th day, 30 min after scopolamine administration, respective treatments were given to all the groups. Fifteen minutes thereafter, the test trials were conducted in MWM and PAT.
The passive avoidance apparatus consists of a larger illuminated compartment and a smaller dark compartment. Each consists of a square box, with a floor grid of 50 × 50 cm and wooden walls of 35-cm height in larger compartment. Larger box was illuminated by 15 W Philips CFL lamp. A smaller dark compartment of 15 × 15 cm with an electrified floor is connected to a constant current stimulator. An opening 6 × 6 cm in between the two compartments was closed using a transparent plexiglass sliding door. The test procedure was carried out in three phases, exploration, learning, and retention (Praveenkumar [2019]).
First day, the animal was placed in the center of the illuminated larger compartment facing away from the entrance to the small darker compartment and allowed to explore the apparatus, i.e., both compartments for 3 min. Total time spent in the larger and smaller compartments and the number of crossings (from larger to smaller compartments and vice versa; a measure of exploratory behavior) were noted. On the second day, animal was placed in the illuminated larger compartment facing away from the entrance to the darker compartment. Once the animal entered the darker compartment, the entrance to the larger compartment was closed, and three strong electric foot shocks (50 Hz, 0.5 mA, 2 s) with 10-s intervals were applied. On the third day, rats were placed in the illuminated larger compartment and allowed to explore both the compartments for 3 min. The parameters assessed are latency time to enter into darker compartment, time spent in the darker and brighter compartments, and the number of crossings between the compartments.

For experiment [2] the test system is unchanged. Nature of the experiment: Locomotor activity (photoactometer), scopolamine-induced amnesia. It is filed as in vivo, Wistar rats. The note with it: scopolamine model, Mean ± SEM, photo beam counts for 5 min. The method, then:
as §1
Locomotor activity was assessed in animals using a digital photoactometer (INCO, India) which contains a cage that is 30-cm long and 30-cm deep with a wire mesh at the bottom. The apparatus was placed in a dark, light, and sound attenuated testing room. Before the locomotor task, animals were placed individually in the activity meter for 3 min for habituation. Then, the ambulatory movements were recorded for 5 min and expressed in terms of total photo beam counts for 5 min per animal.

For `CCN(C)C(=O)Oc1cccc([C@H](C)N(C)C)c1` [INRSM, rivastigmine], the “peak AChE inhibition (Emax, maximum inhibition) in plasma” value in the experiment on AChE was determined as 71.95%. The “time of peak AChE inhibition in plasma” value with AChE stood at 10 min. Besides, the “% AChE Inhibition” value with AChE (0 min, listed as SCP + INRSM) is 0.00 ± 0.0294%; in the experiment with AChE (5 min, listed as SCP + INRSM) it was 64.46 ± 0.1016%; in the experiment on AChE (10 min, listed as SCP + INRSM) it was 71.95 ± 0.0398%; in the experiment on AChE (15 min, listed as SCP + INRSM), 71.82 ± 0.0577 a,b,c %; with AChE (20 min, listed as SCP + INRSM), 62.84 ± 0.0565%; in the experiment on AChE (30 min, listed as SCP + INRSM), 63.67 ± 0.0441%. Besides, the “% AChE Inhibition” value with AChE (45 min, listed as SCP + INRSM) was found to be 59.44 ± 0.0384%; with AChE (60 min, listed as SCP + INRSM), 57.57 ± 0.0314%; in the experiment on AChE (90 min, listed as SCP + INRSM) it was 56.2 ± 0.317%; in the experiment on AChE (120 min, listed as SCP + INRSM), 51.35 ± 0.0329%; with AChE (180 min, listed as SCP + INRSM), 49.26 ± 0.0264%. The Acquisition time in experiment [1] (listed as SCP + INRSM) is 11.59 ± 2.37 s. Besides, the No. of crossings in experiment [1] (listed as SCP + INRSM) came to 2.17 ± 0.54. Moreover, the “Time spent in bright comp.” value in experiment [1] (listed as SCP + INRSM) was determined as 109.67 ± 11.65 s. Further, the “Time spent in darker comp.” value in experiment [1] (listed as SCP + INRSM) turned out to be 70.33 ± 11.65 s. Besides, the Latency time in experiment [1] (listed as SCP + INRSM) amounted to 60.11 ± 16.82 a s. In experiment [2] (listed as SCP + INRSM), the Score on actophotometer turned out to be 296.50 ± 17.68.
As for `CCN(C)C(=O)Oc1cccc([C@H](C)N(C)C)c1` [ORSM, rivastigmine], the “peak AChE inhibition (Emax, maximum inhibition) in plasma” value in the experiment with AChE stood at 71.11%. In addition, the “time of peak AChE inhibition in plasma” value with AChE is listed as 60 min. Besides, the “% AChE Inhibition” value with AChE (0 min, listed as SCP + ORSM) is 0.00 ± 0.0543%; in the experiment on AChE (5 min, listed as SCP + ORSM), 26.67 ± 0.1358%; with AChE (10 min, listed as SCP + ORSM) it was 49.99 ± 0.1026%; in the experiment with AChE (15 min, listed as SCP + ORSM) it was 62.03 ± 0.0877 a,b %; in the experiment with AChE (20 min, listed as SCP + ORSM) it was 66.09 ± 0.0921%; in the experiment with AChE (30 min, listed as SCP + ORSM) it was 64.89 ± 0.0895%. The “% AChE Inhibition” value with AChE (45 min, listed as SCP + ORSM) came out at 70.42 ± 0.0577%; in the experiment on AChE (60 min, listed as SCP + ORSM), 71.11 ± 0.0438%; with AChE (90 min, listed as SCP + ORSM) it was 68.18 ± 0.0298%; in the experiment with AChE (120 min, listed as SCP + ORSM) it was 64.36 ± 0.0262%; with AChE (180 min, listed as SCP + ORSM), 48.89 ± 0.0378%; in the experiment on AChE (240 min) it was 37.05 ± 0.0184%. Also, the Acquisition time in experiment [1] (listed as SCP + ORSM) is on record as 14.66 ± 2.61 s. In addition, in experiment [1] (listed as SCP + ORSM), the No. of crossings came to 2.50 ± 0.85. Moreover, in experiment [1] (listed as SCP + ORSM), the “Time spent in bright comp.” value was found to be 103.50 ± 16.38 s. Also, the “Time spent in darker comp.” value in experiment [1] (listed as SCP + ORSM) is recorded as 76.50 ± 16.38 s. In addition, in experiment [1] (listed as SCP + ORSM), the Latency time is 41.63 ± 15.66 a s. Also, in experiment [2] (listed as SCP + ORSM), the Score on actophotometer amounted to 238.16 ± 20.88.

For the origin of these results see paper PMC8298375 (Naunyn-Schmiedeberg's Archives of Pharmacology, 2021).
